From US20100278733A1, “COMPOSITION FOR DIAGNOSIS OF AMYLOID-RELATED DISEASE” (priority 2007, published 2010)
Blank lines part the entries; values can stand above or below the compound they belong to.

Experiments:
[1] = In-vivo radioactivity distribution experiment in normal mice (Reference Example 2); details: Reference Example 2 numbering; for Radioactivity concentration in the brain of mice: intravenous
Protocol: Labeled compounds, [^11C]Compounds 23 and 7, were diluted with physiological saline containing 10% ethanol. 100 μL of each of the labeled compounds was intravenously infused to five 5-week-old male ddY mice per group, the animals were decapitated at 2, 10, 30, or 60 min, blood was collected, and then weights and radioactivities thereof were measured.

Aβ(1-42) aggregate [2] = target: T1, Aβ(1-42) aggregate (Homo sapiens, UniProt P05067); assay: Examination of binding site by binding inhibition experiment using Aβ(1-42) aggregate (Example 2); details: in words, FIG. 10
T1 construct: Amyloid β protein (Human, 1-42) [TFA form] was purchased from Peptide Institute, Inc; purchased Peptide Institute, Inc
Protocol: Aβ(1-42) was dissolved in 10 mM phosphate buffer containing 1 mM EDTA (pH 7.4) at a concentration of 0.25 mg/mL, and the mixture was incubated at 37° C. for 42 h to prepare an Aβ(1-42) aggregate.
[…] of 10% EtOH solution, […] of [^125I]CL-NMe2 solution, […] of a solution of congo red, thioflavine T, or compound 14 at various concentrations (0 to 20 mM) were mixed, […] of an Aβ(1-42) aggregate solution was finally added, and the mixture was allowed to stand at room temperature for 3 h. Aβ(1-42) aggregate-bound compounds and nonbound compounds were separated with a Brandel M-24R cell harvester using a Whatman GF/B filter. Radioactivities remaining on the filter after filtration were measured with a γ-counter, and inhibition curves were created using Graph Pad Prism 4.0 to calculate inhibition constants.

Aβ(1-42) aggregate [3] = target: T1, Aβ(1-42) aggregate; assay: In-vitro binding inhibition experiment using Aβ(1-42) aggregate (Reference Example 2); details: ligand [^125I]4-dimethylamino-4′-iodochalcone; compound numbers of Reference Example 2; read-out: Inhibition constant (Ki, nM) (mean ± SE)
Protocol: (§1) Amyloid β protein (Human, 1-42) [TFA form] was purchased from Peptide Institute, Inc., and special grade reagents were used as other reagents. ^1H-NMR was measured using Varian Gemini 300 and tetramethylsilane as an internal standard substance.
The Aβ(1-42) aggregate was dissolved in a buffer containing 10 mM sodium phosphate and 1 mM EDTA (pH 7.4) at a concentration of 0.5 mg/mL, and the mixture was incubated at 37° C. for 36 to 42 h. The binding inhibition experiment was performed using 12×75-mm borosilicate glass tubes. 850 μL of 10% ethanol solution, 50 μL of [^125I]4-dimethylamino-4′-iodochalcone (in 10% aqueous ethanol), 50 μL (29 nM) of an Aβ(1-42) aggregate solution, and 50 μL of a solution of fluorine-containing chalcone derivatives in 10% aqueous ethanol prepared at various concentrations were mixed, and the mixture was allowed to stand at room temperature for 3 h. Further, nonspecific binding was calculated using 4-dimethylamino-4′iodochalcone (400 nM), a nonradioactive compound. Aβ aggregate-bound chalcone derivatives and nonbound chalcone derivatives were separated with a Brandel M-24R cell harvester using Whatman GF/B filters. Radioactivities of substances remaining on the filter were measured with a γ counter. The 50% inhibitory concentrations were calculated using Graph Pad Prism (graph pad software), and inhibition constants (Ki values) were calculated by Cheng-Prusoff equation, Ki=IC50/(1+[L]/Kd). In this equation, the concentration of [^125I]4-dimethylamino-4′-iodochalcone used in the experiment was used for [L], and the dissociation constant of [^125I]4-dimethylamino-4′-iodochalcone against the Aβ(1-42) aggregate was used for Kd.

Aβ(1-42) aggregate [4] = target: T1, Aβ(1-42) aggregate; assay: In-vitro binding inhibition experiment using Aβ(1-42) aggregate (Example 1); details: compound numbers of Example 1
Protocol: as §1
The Aβ(1-42) aggregate was dissolved in a buffer containing 10 mM sodium phosphate and 1 mM EDTA (pH 7.4) at a concentration of 0.5 mg/mL, and the mixture was incubated at 37° C. for 36 to 42 h. The binding inhibition experiment was performed using 12×75-mm borosilicate glass tubes. 850 μL of 10% ethanol solution, 50 μL of an Aβ-binding substance ([^125I]4-dimethylamino-4′ iodochalcone) (10% aqueous ethanol), 50 μL (57 nM) of Aβ(1-42) aggregate solution, and 50 μL of 10% aqueous ethanol each containing Compounds 1 and 4 at various concentrations (0.003 to 781 nM) were mixed, and the mixture was allowed to stand at room temperature for 3 h. Further, nonspecific binding was determined using 4-dimethylamino-4′-iodochalcone (400 nM), a nonradioactive compound. Aβ aggregate-bound chalcone derivatives and nonbound chalcone derivatives were separated with a Brandel M-24R cell harvester using a Whatman GF/B filter. The radioactivities of substances remaining on the filter after filtration were measured with a γ counter. […]

T1 sequence (P05067 672-713 limits assumed): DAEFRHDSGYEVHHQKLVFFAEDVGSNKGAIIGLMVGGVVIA

Compound: Nc1c(/N=N/c2ccc(-c3ccc(/N=N/c4cc(S(=O)(=O)O)c5ccccc5c4N)cc3)cc2)cc(S(=O)(=O)O)c2ccccc12 [congo red]
inhibition of binding of [^125I]CL-NMe2 to the Aβ(1-42) aggregate (Aβ(1-42) aggregate [2]): did not inhibit binding of [^125I]CL-NMe2 to the Aβ(1-42) aggregate to a large extent

Compound: Cc1ccc2c(c1)sc(-c1ccc(N(C)C)cc1)[n+]2C.[Cl-] [thioflavine T]
inhibition of binding of [^125I]CL-NMe2 to the Aβ(1-42) aggregate (Aβ(1-42) aggregate [2]): did not inhibit binding of [^125I]CL-NMe2 to the Aβ(1-42) aggregate to a large extent

Compound: CN(C)c1ccc(/C=C/C(=O)c2ccc(F)cc2)cc1 [Compound 23 in Reference Example 2, (E)-3-(4-(dimethylamino)phenyl)-1-(4-fluorophenyl) prop-en-1-one]
ratio of brain radioactivity at 60 min to that at 2 min after administration [1]: 28.3%
ratio of the radioactivity remaining in the brain at 30 min after administration to that at 2 min after administration [1]: 28.3%
Radioactivity concentration in the brain of mice ([1]; 2 min after administration, listed as [^11C] 23): 3.68 ± 0.35 % ID/g
Radioactivity concentration in the brain of mice ([1]; 2 min after administration, listed as [^11C]Compound 23): 3.68 % ID/g
Radioactivity concentration in the brain of mice ([1]; 10 min after administration): 1.53 ± 0.14 % ID/g
Radioactivity concentration in the brain of mice ([1]; 30 min after administration): 1.04 ± 0.15 % ID/g
Radioactivity concentration in the brain of mice ([1]; 60 min after administration, listed as [^11C] 23): 1.04 ± 0.20 % ID/g
Radioactivity concentration in the brain of mice ([1]; 60 min after administration, listed as [^11C]Compound 23): 1.04 % ID/g

Compound: Nc1ccc(/C=C/C(=O)c2ccc(OCCOCCF)cc2)cc1 [Compound 16 in Reference Example 2, (E)-1-(4-(2-(2-fluoroethoxy)ethoxy)phenyl)-3-(4-aminophenyl)prop-2-en-1-one]
Ki (Aβ(1-42) aggregate [3]): 1000 ± 29 nM

Compound: CN(C)c1ccc(/C=C/C(=O)c2ccc(I)s2)cc1 [Compound 1 in Example 1, (E)-3-(4-(dimethylamino)phenyl)-1-(5-iodothiophen-2-yl)prop-2-en-1-one]
binding property to the amyloid aggregate (Aβ(1-42) aggregate [4]; in words): very strong binding property
Ki (Aβ(1-42) aggregate [4]; ligand [^125I]4-dimethylamino-4′-iodochalcone, mean and standard deviation of three experiments, read-out: Inhibition constants (Ki) for binding to Aβ(1-42) aggregate): 0.0052 ± 0.0007 µM

Compound: CNc1ccc(/C=C/C(=O)c2ccc(OCCOCCF)cc2)cc1 [Compound 17 in Reference Example 2, (E)-1-(4-(2-(2-fluoroethoxy)ethoxy)phenyl)-3-(4-(methylamino)phenyl)prop-2-en-1-one]
Ki (Aβ(1-42) aggregate [3]): 187 ± 3 nM

More lines, now with the values ahead:

ratio of brain radioactivity at 60 min to that at 2 min after administration [1]: 8.1%
ratio of the radioactivity remaining in the brain at 30 min after administration to that at 2 min after administration [1]: 14.8%
Radioactivity concentration in the brain of mice ([1]; 2 min after administration, listed as [^11C] 7): 4.31 ± 0.33 % ID/g
Radioactivity concentration in the brain of mice ([1]; 2 min after administration, listed as [^11C]Compound 7): 4.31 % ID/g
Radioactivity concentration in the brain of mice ([1]; 10 min after administration): 1.38 ± 0.16 % ID/g
Radioactivity concentration in the brain of mice ([1]; 30 min after administration): 0.64 ± 0.07 % ID/g
Radioactivity concentration in the brain of mice ([1]; 60 min after administration, listed as [^11C] 7): 0.35 ± 0.03 % ID/g
Radioactivity concentration in the brain of mice ([1]; 60 min after administration, listed as [^11C]Compound 7): 0.35 % ID/g
Compound: CN(C)c1ccc(/C=C/C(=O)c2ccc(OCCOCCOCCF)cc2)cc1 [Compound 7 in Reference Example 2, (E)-1-(4-(2-(2-(2-fluoroethoxy)ethoxy)ethoxy)phenyl)-3-(4-(dimethylamino)phenyl)prop-2-en-1-one]

Ki (Aβ(1-42) aggregate [3]): 29 ± 2 nM
Compound: CN(C)c1ccc(/C=C/C(=O)c2ccc(OCCF)cc2)cc1 [Compound 3 in Reference Example 2, (E)-1-(4-(2-fluoroethoxy)phenyl)-3-(4-(dimethylamino)phenyl)prop-2-en-1-one]

Ki (Aβ(1-42) aggregate [3]): 19 ± 1 nM
Compound: CN(C)c1ccc(/C=C/C(=O)c2ccc(OCCOCCF)cc2)cc1 [Compound 5 in Reference Example 2, (E)-1-(4-(2-(2-fluoroethoxy)ethoxy)phenyl)-3-(4-(dimethylamino)phenyl)prop-2-en-1-one]

Ki (Aβ(1-42) aggregate [3]): 553 ± 22 nM
Compound: Nc1ccc(/C=C/C(=O)c2ccc(OCCF)cc2)cc1 [Compound 11 in Reference Example 2, (E)-1-(4-(2-fluoroethoxy)phenyl)-3-(4-aminophenyl)prop-2-en-1-one]
